In experiment [1] the target is T1, vasopressin V1a receptor (Homo sapiens, UniProt P37288).
T1 construct: host or cells: CHO cells (hV1a cell line), whole adherent cells
In words: Inhibition of phosphatidylinositol turnover. Type of experiment: cell-based. Particulars: hV1a cells; for agonist or antagonist character: vasopressin-mediated turnover of phosphatidylinositol. The source says:
Inhibition of phosphatidylinositol turnover. The physiological effects of vasopressin are mediated through specific G-protein coupled receptors. The vasopressin V1a receptor is coupled to the Gq/G11 family of G proteins and mediates phosphatidylinositol turnover. The agonist or antagonist character of the compounds of the invention may be determined by their ability to inhibit vasopressin-mediated turnover of phosphatidylinositol by the procedure described in the following paragraphs.
Cell culture and labeling of cells. Three days prior to the assay, near-confluent cultures of hV1a cells were dissociated and seeded in 6-well tissue culture plates, about 100 wells being seeded from each 75 cm^2 flask (equivalent to 12:1 split ratio).
Incubations. All assays were in triplicate except for basal and 10 nM AVP (both n=6). AVP ((arginine vasopressin), Peninsula Labs, Belmont, Calif., USA (#8103)) was dissolved in 0.1N acetic acid. Test agents were dissolved in DMSO and diluted in DMSO to 200 times the final test concentration. […] The order of incubations was randomized. Incubations were initiated by removing the prelabeling medium, washing the monolayer once with 1 mL of 0.9% NaCl, and transferring the contents of the assay tubes to corresponding wells. The plates were incubated for 1 hour at 37° C. Incubations were terminated by removing the incubation medium and adding 500 μL of ice cold 5% (w/v) trichloroacetic acid and allowing the wells to stand for 15 min.
Measurement of [^3H]inositol phosphates. BioRad Poly-Prep Econo-Columns were packed with 0.3 mL of AG 1 X-8 100-200 formate form resin. Resin was mixed 1:1 with water and 0.6 mL added to each column. Columns were then washed with 10 mL water. Scintillation vials (20 mL) were placed under each column. For each well, the contents were transferred to a minicolumn, after which the well was washed with 0.5 mL distilled water, which was also added to the minicolumn. The columns were then washed twice with 5 mL of 5 mM myo-inositol to elute free inositol. Aliquots (1 mL) were transferred to 20 mL scintillation vials and 10 mL of Beckman Ready Protein Plus added. After the myo-inositol wash was complete, empty scintillation vials were placed under the columns, and [^3H]inositol phosphates were eluted with three additions of 1 mL 0.5 M ammonium formate containing 0.1 N formic acid. Elution conditions were optimized to recover inositol mono-, bis-, and trisphosphates, without eluting the more metabolically inert tetrakis-, pentakis-, and hexakis-phosphates. To each sample was added 10 mL of a high salt capacity scintillation fluid such as Tru-Count High Salt Capacity or Packard Hionic-Fluor. Inositol lipids were measured by adding 1 mL of 2% sodium dodecyl sulfate (SDS) to each well, allowing the wells to stand for at least 30 min., and transferring the solution to 20 mL scintillation vials, to which 10 mL Beckman Ready Protein Plus scintillation fluid was then added. Samples were counted in a Beckman LS 3801 liquid scintillation counter for 10 min. Total inositol incorporation for each well was calculated as the sum of free inositol, inositol phosphates, and inositol lipids.
Data analysis: concentration-inhibition experiments. Concentration-response curves for AVP and concentration-inhibition curves for test agents versus 10 nM AVP were analyzed by nonlinear least-squares curve-fitting to a 4-parameter logistic function. Parameters for basal and maximal inositol phosphates, EC50 or IC50, and Hill coefficient were varied to achieve the best fit. The curve-fitting was weighted under the assumption that the standard deviation was proportional to dpm of radioactivity. Full concentration-response curves for AVP were run in each experiment, and IC50 values were converted to Ki values by application of the Cheng-Prusoff equation, based on the EC50 for AVP in the same experiment. Inositol phosphates were expressed as dpm per 10^6 dpm of total inositol incorporation.

Experiment [2] deals with T2, V1a (Homo sapiens, UniProt P37288). Description: Human vasopression V1a receptor binding assay. The arrangement: host or cells: CHO cells (hV1a cell line), whole adherent cells. The note with it: for Ki / IC50: hV1a cell line (CHO); for Ki: Table 18; for IC50: 1 nM 3H-AVP, Table 17, read-out: V1a Binding Affinity (IC50 (nM)). In outline:
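Whole CHO cells stably expressing human V1a receptor competed 1 nM 3H-AVP against 10-fold serial compound dilutions (DMSO) in pH 7.0 Hepes/BSA/DMEM buffer, 45 min at 37° C.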

In experiment [3] the test system is panel of 63 other receptors. In words: Comparative binding to other receptors showing selectivity (NOVASCREEN). Particulars: 100 nM. The source says:
Comparative binding to other receptors showing selectivity.

Experiment [4] relates to AVP-induced rise in blood pressure. In words: Blood pressure pharmacology rats. Type of experiment: in vivo. From the text:
Blood pressure pharmacology rats. […] Prior to menses, blood vessels in the uterine wall become engorged with blood. Vasopressin, acting through V1a receptors, causes constriction of both uterine and vascular smooth muscle contributing to the discomfort and pain of primary dysmenorrhea. Vasopressin is one of the endogenous factors that maintains vascular tone. Blocking the V1a receptors localized to smooth muscle may ameliorate the symptoms of primary dysmenorrhea. Elevated concentrations of vasopressin, acting through V1a receptors causes constriction of both uterine and vascular smooth muscle contributing to the discomfort and pain of primary dysmenorrhea. There are no animal models for evaluating receptor antagonists on dysmenorrhea. […]
Male rats were divided into five groups, and each group was tested with placebo, or one of four doses of one or more of the compounds described herein, such as with Example 225 at 0.16, 0.4, 1.0, and 2.5 mg/kg. Rats were treated orally with the compound and effects on blood pressure were measured 90-150 min later as follows. Under isoflurane anesthesia blood pressure was recorded through a cannula in the femoral artery. To increase systemic blood pressure AVP was administered (25 ng/kg) through a cannula in the femoral vein; the change in mean blood pressure was recorded two minutes following injection of AVP.

Experiment [5] deals with T2, V1a. The arrangement: host or cells: human subjects (in vivo). Particulars: oral, subjects 18-35 years; cited from earlier work.

T1 sequence (P37288 whole entry): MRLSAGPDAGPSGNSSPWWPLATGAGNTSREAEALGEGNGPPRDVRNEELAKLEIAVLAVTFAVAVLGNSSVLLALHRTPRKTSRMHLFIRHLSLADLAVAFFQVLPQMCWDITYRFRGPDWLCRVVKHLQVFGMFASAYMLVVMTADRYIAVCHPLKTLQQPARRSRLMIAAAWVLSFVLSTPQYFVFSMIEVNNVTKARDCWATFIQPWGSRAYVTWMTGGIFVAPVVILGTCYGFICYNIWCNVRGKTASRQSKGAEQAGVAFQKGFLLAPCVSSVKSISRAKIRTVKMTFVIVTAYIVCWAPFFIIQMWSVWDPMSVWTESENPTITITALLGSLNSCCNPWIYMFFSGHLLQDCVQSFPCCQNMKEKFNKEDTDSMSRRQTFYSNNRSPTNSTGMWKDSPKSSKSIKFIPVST
T2 sequence (P37288 whole entry): as above

Usually Ki stands for the dissociation constant of the complex between target and ligand, obtained from inhibition or displacement. Turning to `O=C(NCc1cccc(C(F)(F)F)c1)C(CCC(=O)N1CCN(CCc2ccccc2)CC1)N1C(=O)C(N2C(=O)OCC2c2ccccc2)C1C=Cc1ccccc1` (single isomer, unassigned) [Example 35], in experiment [1], the “agonist or antagonist character” value is reported as “vasopressin V1a antagonists”. For the same compound, the Ki in experiment [2] worked out at 1.17 nM.

As for `O=C(NCc1cccc(C(F)(F)F)c1)C(CCC(=O)N1CCN(C2CCCCC2)CC1)N1C(=O)C(N2C(=O)OCC2c2ccccc2)C1C=Cc1ccccc1` (single isomer, unassigned) [Example 110], the “agonist or antagonist character” value in experiment [1] was “vasopressin V1a antagonists”. In experiment [2], the Ki was determined as 0.27 nM.

`O=C(NCc1cccc(C(F)(F)F)c1)[C@H](CC(=O)N1CCC(N2CCCCC2)CC1)N1C(=O)[C@@H](N2C(=O)OC[C@@H]2c2ccccc2)[C@H]1/C=C/c1ccccc1` [Example 44]: the “agonist or antagonist character” value in experiment [1] was “vasopressin V1a antagonists”. The affinity in experiment [2], expressed as Ki, was 1.89 nM.

The term IC50 denotes the midpoint of a concentration-inhibition curve. Consider `O=C(NCc1cccc(C(F)(F)F)c1)[C@H](CCC(=O)N1CCC(N2CCCCC2)CC1)N1C(=O)[C@@H](N2C(=O)OC[C@@H]2c2ccccc2)[C@H]1/C=C/c1ccccc1` [Example 88], for which the “agonist or antagonist character” value in experiment [1] is given as “vasopressin V1a antagonists”. Further, in experiment [2], the IC50 is 2.4 nM and the Ki was determined as 1.45 nM.

For `O=C(NCc1cccc(C(F)(F)F)c1)[C@@H](CC(=O)N1CCC(N2CCCCC2)CC1)N1C(=O)[C@@H](N2C(=O)OC[C@@H]2c2ccccc2)[C@H]1/C=C/c1ccccc1` [Example 133], the “agonist or antagonist character” value in experiment [1] is given as “vasopressin V1a antagonists”. In experiment [2], this compound had a Ki of 1.49 nM.

On to `CN(Cc1cccc(C(F)(F)F)c1)C(=O)[C@@H](CC(=O)N1CCC(N2CCCCC2)CC1)N1C(=O)[C@@H](N2C(=O)OC[C@@H]2c2ccccc2)[C@H]1/C=C/c1ccccc1` [Example 225, 2(R)-[[4-(Piperidinyl)piperidinyl]carbonylmethyl]-2-[3(S)-(4(S)-phenyloxazolidin-2-on-3-yl)-4(R)-(2-styryl)azetidin-2-on-1-yl]acetic acid N-methyl-N-(3-trifluoromethylbenzyl)amide], for which the Ki in experiment [1] (from IC50 by Cheng-Prusoff equation, read-out: Ki, suppression of the action of AVP) worked out at 0.05 nM. For the same compound, the “suppression of the action of AVP” value in experiment [1] (inositol phosphates) is “dose-dependent suppression of the action of AVP”. The IC50 worked out at 2.68 nM in experiment [1] (versus 10 nM AVP, inositol phosphates, read-out: IC50, suppression of the action of AVP) and 1.08 nM in experiment [2]. In experiment [3], the “selective binding against panel of 63 other receptors” value is listed as “bound only to the V1a vasopressin receptor”. The “inhibition of the AVP-induced rise in blood pressure” value in experiment [4] (male rats, oral 0.16, 0.4, 1.0, 2.5 mg/kg, 90-150 min before AVP 25 ng/kg) is “dose-dependent inhibition of the AVP-induced rise in blood pressure”. Moreover, the “reduction in blood pressure as compared to vehicle and the two lower doses” value in experiment [4] (rats, oral 1 and 2.5 mg/kg) is on record as “significant (p<0.01) reduction in blood pressure”. In addition, in experiment [2] (hV1a cell line, 10 fold dilutions of test compound), the “binding curve against [3H]-AVP” value was “dose-dependent competitive binding curve”.

For the compound `COc1ccc(S(=O)(=O)N2c3ccc(Cl)cc3[C@](O)(c3ccccc3Cl)[C@@H]2C(=O)N2CCC[C@H]2C(N)=O)cc1OC` [SR49059], the “reduction in pain across three menstrual cycles” value in experiment [5] was “significant reduction in pain”.
